Assays:
[1] = biological target: T1, human group IIA (hG-IIA) sPLA2 (Homo sapiens, UniProt P14555); test: In vitro antiphospholipase activity; type: biochemical
T1 sequence (P14555 21-144): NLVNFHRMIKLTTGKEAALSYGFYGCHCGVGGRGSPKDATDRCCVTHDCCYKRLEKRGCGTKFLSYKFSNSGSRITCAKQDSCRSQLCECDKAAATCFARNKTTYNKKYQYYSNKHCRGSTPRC

[2] = biological target: T2, human group X (hG-X) sPLA2 (Homo sapiens, UniProt O15496); test: In vitro antiphospholipase activity; type: biochemical; conditions: 20 min preincubation, lecithin substrate, pH 7.6; read-out: mean IC50 against hG-X (converted)
T2 sequence (O15496 43-165): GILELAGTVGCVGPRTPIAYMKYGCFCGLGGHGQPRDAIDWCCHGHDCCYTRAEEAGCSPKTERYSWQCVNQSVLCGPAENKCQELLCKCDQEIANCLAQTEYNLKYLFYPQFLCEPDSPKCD

[3] = biological target: Naja mossambica mossambica sPLA2 (NmPLA2); test: In vitro antiphospholipase activity; type: biochemical; conditions: 20 min preincubation, lecithin substrate, pH 7.6
xanthine oxidase = xanthine oxidase (Homo sapiens, UniProt P47989); test: In vitro inhibition of xanthine oxidase; type: biochemical
Sequence of xanthine oxidase (P47989 whole entry, species assumed): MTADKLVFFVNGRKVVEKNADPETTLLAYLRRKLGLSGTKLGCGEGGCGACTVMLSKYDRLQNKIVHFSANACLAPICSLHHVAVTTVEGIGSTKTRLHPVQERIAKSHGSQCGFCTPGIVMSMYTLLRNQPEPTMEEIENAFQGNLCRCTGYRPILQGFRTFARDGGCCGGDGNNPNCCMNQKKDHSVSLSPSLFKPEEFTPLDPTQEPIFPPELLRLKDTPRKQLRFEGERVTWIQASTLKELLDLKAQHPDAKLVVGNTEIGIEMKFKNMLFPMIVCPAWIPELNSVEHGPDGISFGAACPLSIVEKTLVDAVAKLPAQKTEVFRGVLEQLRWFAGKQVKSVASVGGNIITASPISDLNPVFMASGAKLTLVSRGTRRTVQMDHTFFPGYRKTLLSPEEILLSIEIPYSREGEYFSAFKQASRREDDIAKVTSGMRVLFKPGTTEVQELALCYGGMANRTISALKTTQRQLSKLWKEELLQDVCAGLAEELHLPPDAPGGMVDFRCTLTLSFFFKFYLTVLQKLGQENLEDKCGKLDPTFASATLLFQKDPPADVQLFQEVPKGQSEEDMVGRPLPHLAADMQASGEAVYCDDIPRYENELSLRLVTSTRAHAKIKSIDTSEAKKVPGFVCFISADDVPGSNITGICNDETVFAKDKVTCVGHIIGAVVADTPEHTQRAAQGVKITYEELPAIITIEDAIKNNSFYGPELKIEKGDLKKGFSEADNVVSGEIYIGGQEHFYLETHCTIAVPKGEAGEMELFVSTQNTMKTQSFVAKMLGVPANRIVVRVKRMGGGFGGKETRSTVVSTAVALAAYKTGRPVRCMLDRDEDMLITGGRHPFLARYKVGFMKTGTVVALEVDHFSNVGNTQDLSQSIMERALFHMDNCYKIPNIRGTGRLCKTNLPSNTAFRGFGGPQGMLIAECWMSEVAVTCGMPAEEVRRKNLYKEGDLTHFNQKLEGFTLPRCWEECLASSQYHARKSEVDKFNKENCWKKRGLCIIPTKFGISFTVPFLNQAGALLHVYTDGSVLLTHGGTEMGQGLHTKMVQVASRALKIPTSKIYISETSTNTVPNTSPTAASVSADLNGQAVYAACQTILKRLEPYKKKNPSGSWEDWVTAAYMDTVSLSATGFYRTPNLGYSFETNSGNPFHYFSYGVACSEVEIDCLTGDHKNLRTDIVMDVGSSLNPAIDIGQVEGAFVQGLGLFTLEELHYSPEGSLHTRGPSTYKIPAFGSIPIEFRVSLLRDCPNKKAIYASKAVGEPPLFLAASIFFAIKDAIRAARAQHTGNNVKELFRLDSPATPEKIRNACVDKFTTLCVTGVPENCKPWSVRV
Description: The xanthine oxidase inhibitory activities of the examined chemical compounds were determined by following the formation of uric acid from xanthine according to the reported method by Bondet and co-workers[46]. […] The results were expressed as IC50 determined from the curve.

[4] = biological target: T3, human group V (hG-V) sPLA2 (Homo sapiens, UniProt P39877); test: In vitro antiphospholipase activity; type: biochemical; conditions: 20 min preincubation, lecithin substrate, pH 7.6; read-out: mean IC50 against hG-V (converted)
T3 sequence (P39877 21-138): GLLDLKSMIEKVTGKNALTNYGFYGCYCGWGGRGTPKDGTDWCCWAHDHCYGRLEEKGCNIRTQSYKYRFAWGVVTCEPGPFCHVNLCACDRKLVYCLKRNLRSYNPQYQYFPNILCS

SW620 cells = test: MTT cell viability assay; type: cell-based, Human; conditions: for inhibition of cell viability (in words): SW620, 30 μg/ml, MTT; for viability at 30 µg/mL: Homo sapiens, SW-620, 24 h, read-out: cell viability
Description: (§1) Human CRC cell lines, HT-29 and SW620 cells were grown in RPMI (Invitrogen) containing 10% heat-inactivated foetal bovine serum, 100 µg/ml streptomycin, 100 units/ml penicillin and 2 mmol/l L-glutamine.
(§2) Cell viability was determined using the 3-(4, 5-dimethylthiazolyl-2)–2, 5-diphenyltetrazolium bromide) MTT assay according to Mosmann[40]. 5-Fluorouracil (5-FU) was used as positive control. Briefly, after culturing cells in 96 well plates for 24 h, they were treated with different compounds (30 μg/ml) for 24 h. Freshly prepared MTT (5 mM) solutions were added to the cells and were further incubated for 2 h at 37 °C in 5% CO2. One hundred microliters of dimethyl sulphoxide (DMSO) was added in each well to dissolve the formazan crystal, formed in the reaction during incubation by careful pipetting. The absorbance of the product was measured at 540 nm using a microplate reader. The experiments were performed in triplicate for each condition. The graph illustrates the mean and standard deviation (SD) values of three independent experiments.

HT-29 cells = test: MTT cell viability assay; type: cell-based, Human; conditions: for inhibition of cell viability (in words): HT-29, 30 μg/ml, MTT; for viability at 30 µg/mL: Homo sapiens, HT-29, 24 h, read-out: cell viability
Description: as §1, §2

collagenase = test: In vitro antiprotease activity; type: biochemical; conditions: 15 min preincubation
Description: (§3) The inhibitory effects of 21 3H-quinazolin-4-one derivatives on several available therapeutically important proteases such as cathepsin-B, collagenase, elastase, thrombin, and trypsin were investigated. […] The protease inhibitory activity was expressed as inhibition percentage, which was determined by comparison with a control experiment. The results were expressed as IC50 values that were determined from the standard curve. A protease inhibitor cocktail (Sigma) was used as the positive control.

elastase = test: In vitro antiprotease activity; type: biochemical; conditions: 15 min preincubation
Description: as §3

cathepsin-B = cathepsin-B (Homo sapiens, UniProt P07858); test: In vitro antiprotease activity; type: biochemical; conditions: 15 min preincubation; read-out: mean IC50 against Cathepsin-B (converted)
Description: as §3

thrombin = thrombin (Homo sapiens, UniProt P00734); test: In vitro antiprotease activity; type: biochemical; conditions: 15 min preincubation; read-out: mean IC50 against Thrombin (converted)
Description: as §3

trypsin = biological target: T4, trypsin (Bos taurus, UniProt P00760); test: In vitro antiprotease activity; type: biochemical; conditions: 15 min preincubation; read-out: mean IC50 against Trypsin (converted)
T4 construct: gene PRSS1
T4 sequence (P00760 24-246): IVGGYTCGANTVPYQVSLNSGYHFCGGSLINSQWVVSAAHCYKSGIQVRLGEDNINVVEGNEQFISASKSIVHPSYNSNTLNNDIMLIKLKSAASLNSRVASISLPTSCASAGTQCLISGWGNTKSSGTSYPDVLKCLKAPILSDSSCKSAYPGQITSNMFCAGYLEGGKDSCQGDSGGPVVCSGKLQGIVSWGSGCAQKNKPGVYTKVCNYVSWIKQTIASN
Description: as §3

[5] = biological target: Apis mellifera bee venom (AmPLA2) (Apis mellifera, UniProt P00630); test: biochemical
Sequence of Apis mellifera bee venom (AmPLA2) (P00630 34-167 limits assumed): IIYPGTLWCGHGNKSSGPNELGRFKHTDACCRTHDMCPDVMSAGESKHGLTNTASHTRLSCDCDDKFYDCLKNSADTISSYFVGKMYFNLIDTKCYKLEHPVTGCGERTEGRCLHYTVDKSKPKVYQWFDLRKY

Cc1nc2ccccc2c(=O)n1/N=C/c1ccc2ccccc2c1 [Compound 8a, (E)-2-Methyl-3-[(naphthalen-2-ylmethylene)-amino]-3H-quinazolin-4-one]
IC50 [1]: 145 µM
IC50 [2]: 90.9 µM
mean IC50 against NmPLA2 [3]: 36.75 ± 2.48 µg/mL
IC50 (xanthine oxidase): 137 µM
IC50 [4]: 121 µM
inhibition of cell viability (in words) (SW620 cells): potently capable of inhibiting cell viability
inhibition of cell viability (in words) (HT-29 cells): potently capable of inhibiting cell viability
mean IC50 against Collagenase (collagenase): 31.00 ± 1.41 µg/mL
mean IC50 against Elastase (elastase): 32.50 ± 2.12 µg/mL
IC50 (cathepsin-B): 116 µM
IC50 (thrombin): 109 µM
IC50 (trypsin): 110 µM
IC50 [5]: 98.9 µM

COc1cc(-n2c(C)nc3ccc(F)cc3c2=O)cc(OC)c1OC [Compound 5b, 6 -Fluoro-2-methyl-3–(3,4,5-trimethoxy-phenyl)-3H-quinazolin-4-one]
IC50 [1]: 60.3 µM
IC50 [2]: 24.7 µM
mean IC50 against NmPLA2 [3]: 4.15 ± 0.50 µg/mL
IC50 (xanthine oxidase): 15.7 µM
IC50 [4]: 36.3 µM
melting point: 193 to 195 °C
viability at 30 µg/mL (SW620 cells): 46.6%
mean IC50 against Collagenase (collagenase): 18.00 ± 1.41 µg/mL
mean IC50 against Elastase (elastase): 0.70 ± 0.01 µg/mL
IC50 (cathepsin-B): 31.9 µM
IC50 (thrombin): 2.61 µM
IC50 (trypsin): 3.19 µM
IC50 [5]: 14.8 µM

Cc1ccc2nc(SCc3ccc(Cl)cc3)n(-c3ccccc3)c(=O)c2c1 [Compound 15b, 2-(4-Chloro-benzylsulfanyl)-6-methyl-3-phenyl-3H-quinazolin-4-one]
IC50 [1]: 66.2 µM
IC50 [2]: 34.4 µM
mean IC50 against NmPLA2 [3]: 14.85 ± 0.50 µg/mL
IC50 (xanthine oxidase): 49.6 µM
IC50 [4]: 46.8 µM
melting point: 164 to 165 °C
inhibition of cell viability (in words) (SW620 cells): potently capable of inhibiting cell viability
inhibition of cell viability (in words) (HT-29 cells): potently capable of inhibiting cell viability
mean IC50 against Collagenase (collagenase): 26.50 ± 2.12 µg/mL
mean IC50 against Elastase (elastase): 0.65 ± 0.02 µg/mL
IC50 (cathepsin-B): 34.4 µM
IC50 (thrombin): 2.55 µM
IC50 (trypsin): 1.27 µM
IC50 [5]: 34.6 µM

Cc1cccc(C)c1NC(=O)CSc1nc2ccccc2c(=O)n1-c1ccccc1 [Compound 15c, N-(2,6-Dimethyl-phenyl)-2-(4-oxo-3-phenyl-3,4-dihydro-quinazolin-2-ylsulfanyl)-acetamide]
IC50 [1]: 96.3 µM
IC50 [2]: 102 µM
mean IC50 against NmPLA2 [3]: 28.50 ± 2.12 µg/mL
IC50 (xanthine oxidase): 148 µM
IC50 [4]: 56.6 µM
melting point: 218 to 220 °C
viability at 30 µg/mL (HT-29 cells): 47.5%
mean IC50 against Collagenase (collagenase): 18.00 ± 1.41 µg/mL
mean IC50 against Elastase (elastase): 18.50 ± 0.71 µg/mL
IC50 (cathepsin-B): 26.5 µM
IC50 (thrombin): 42.1 µM
IC50 (trypsin): 37.3 µM
IC50 [5]: 52.9 µM

COc1cccc(/C=N/n2c(C)nc3ccc(Br)cc3c2=O)c1[N+](=O)[O-] [Compound 8f, (E)-6-Bromo-3-[(3-methoxy-2-nitro-benzylidene)-amino]-2-methyl-3H-quinazolin-4-one]
IC50 [1]: 44.6 µM
IC50 [2]: 43.1 µM
mean IC50 against NmPLA2 [3]: 6.00 ± 0.71 µg/mL
IC50 (xanthine oxidase): 7.19 µM
IC50 [4]: 37.7 µM
melting point: 234 to 235 °C
inhibition of cell viability (in words) (SW620 cells): potently capable of inhibiting cell viability
inhibition of cell viability (in words) (HT-29 cells): potently capable of inhibiting cell viability
mean IC50 against Collagenase (collagenase): 15.50 ± 2.12 µg/mL
mean IC50 against Elastase (elastase): 30.50 ± 2.12 µg/mL
IC50 (cathepsin-B): 45.5 µM
IC50 (thrombin): 59.9 µM
IC50 (trypsin): 74.3 µM
IC50 [5]: 10.1 µM

O=c1[nH]cc(F)c(=O)[nH]1 [Compound 5-FU, 5-Fluorouracil, reference compound]
viability at 30 µg/mL (SW620 cells): 42.7%
viability at 30 µg/mL (HT-29 cells): 65.9%

COc1cc(-n2c(C)nc3ccc(Cl)cc3c2=O)cc(OC)c1OC [Compound 5c, 6 -Chloro-2-methyl-3–(3,4,5-trimethoxy-phenyl)-3H-quinazolin-4-one]
IC50 [1]: 57.5 µM
IC50 [2]: 26.3 µM
mean IC50 against NmPLA2 [3]: 5.15 ± 0.92 µg/mL
IC50 (xanthine oxidase): 36 µM
IC50 [4]: 38.1 µM
melting point: 188 to 190 °C
mean IC50 against Collagenase (collagenase): 21.50 ± 2.12 µg/mL
mean IC50 against Elastase (elastase): 1.75 ± 0.05 µg/mL
IC50 (cathepsin-B): 34.6 µM
IC50 (thrombin): 6.93 µM
IC50 (trypsin): 6.24 µM
IC50 [5]: 12.6 µM

Cc1nc2ccccc2c(=O)n1/N=C/c1ccc(C#N)cc1 [Compound 8g, (E)-4-[(2-Methyl-4-oxo-4H-quinazolin-3-ylimino)-methyl]-benzonitrile]
IC50 [1]: 95.4 µM
IC50 [2]: 79.8 µM
mean IC50 against NmPLA2 [3]: 12.75 ± 1.06 µg/mL
IC50 (xanthine oxidase): 257 µM
IC50 [4]: 117 µM
melting point: 222 to 224 °C
mean IC50 against Collagenase (collagenase): 17.25 ± 1.77 µg/mL
mean IC50 against Elastase (elastase): 11.00 ± 0.41 µg/mL
IC50 (cathepsin-B): 25.1 µM
IC50 (thrombin): 48.6 µM
IC50 (trypsin): 46.8 µM
IC50 [5]: 46.8 µM

O=c1c2ccccc2nc(SCc2ccc(Cl)cc2)n1-c1ccccc1 [Compound 15a]
IC50 [1]: 22.7 µM
IC50 [2]: 17.8 µM
mean IC50 against NmPLA2 [3]: 5.40 ± 0.57 µg/mL
IC50 (xanthine oxidase): 31.7 µM
IC50 [4]: 27.7 µM
inhibition of cell viability (in words) (SW620 cells): potently capable of inhibiting cell viability
inhibition of cell viability (in words) (HT-29 cells): potently capable of inhibiting cell viability
mean IC50 against Collagenase (collagenase): 28.00 ± 1.41 µg/mL
mean IC50 against Elastase (elastase): 11.50 ± 2.12 µg/mL
IC50 (cathepsin-B): 48.8 µM
IC50 (thrombin): 35.6 µM
IC50 (trypsin): 31.7 µM
IC50 [5]: 17.2 µM
